PubChem BioAssay (NCI)
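Results reflect a 48-hour exposure of cells in 96-well plates to compound at five concentrations. TGI: concentration producing complete growth inhibition.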

Columns and labels:
Test in all cases: NCI-60 cell line screen, 48 h
786-0 renal = system: 786-0 renal
A498 renal = system: A498 renal
A549 NSCLC = system: A549 NSCLC
ACHN renal = system: ACHN renal
CAKI-1 renal = system: CAKI-1 renal
CCRF-CEM leukemia = system: CCRF-CEM leukemia
COLO 205 colon = system: COLO 205 colon
DLD-1 colon = system: DLD-1 colon
DMS 114 small cell lung = system: DMS 114 small cell lung
DMS 273 small cell lung = system: DMS 273 small cell lung
EKVX NSCLC = system: EKVX NSCLC
HCC-2998 colon = system: HCC-2998 colon
HCT-116 colon = system: HCT-116 colon
HCT-15 colon = system: HCT-15 colon
HL-60(TB) leukemia = system: HL-60(TB) leukemia
HOP-18 NSCLC = system: HOP-18 NSCLC
HOP-62 NSCLC = system: HOP-62 NSCLC
HT29 colon = system: HT29 colon
IGROV1 ovarian = system: IGROV1 ovarian
K-562 leukemia = system: K-562 leukemia
KM12 colon = system: KM12 colon
KM20L2 colon = system: KM20L2 colon
LOX IMVI melanoma = system: LOX IMVI melanoma
LXFL 529 NSCLC = system: LXFL 529 NSCLC
M14 melanoma = system: M14 melanoma
M19-MEL melanoma = system: M19-MEL melanoma
MALME-3M melanoma = system: MALME-3M melanoma
MOLT-4 leukemia = system: MOLT-4 leukemia
NCI-H226 lung = system: NCI-H226 lung
NCI-H23 lung = system: NCI-H23 lung
NCI-H460 lung = system: NCI-H460 lung
NCI-H522 lung = system: NCI-H522 lung
OVCAR-3 ovarian = system: OVCAR-3 ovarian
OVCAR-4 ovarian = system: OVCAR-4 ovarian
OVCAR-5 ovarian = system: OVCAR-5 ovarian
OVCAR-8 ovarian = system: OVCAR-8 ovarian
RXF 393 renal = system: RXF 393 renal
RXF-631 renal = system: RXF-631 renal
SF-268 CNS = system: SF-268 CNS
SF-295 CNS = system: SF-295 CNS
SF-539 CNS = system: SF-539 CNS
SK-MEL-28 melanoma = system: SK-MEL-28 melanoma
SK-MEL-5 melanoma = system: SK-MEL-5 melanoma
SN12C renal = system: SN12C renal
SNB-19 CNS = system: SNB-19 CNS
SNB-75 CNS = system: SNB-75 CNS
SNB-78 CNS = system: SNB-78 CNS
SW-620 colon = system: SW-620 colon
TK-10 renal = system: TK-10 renal
U251 CNS = system: U251 CNS
UACC-257 melanoma = system: UACC-257 melanoma
UACC-62 melanoma = system: UACC-62 melanoma
UO-31 renal = system: UO-31 renal
XF 498 CNS = system: XF 498 CNS
HOP-92 NSCLC = system: HOP-92 NSCLC
RPMI-8226 leukemia = system: RPMI-8226 leukemia
SK-MEL-2 melanoma = system: SK-MEL-2 melanoma
SK-OV-3 ovarian = system: SK-OV-3 ovarian
SR leukemia = system: SR leukemia

Measured: TGI

COc1ccccc1N=Nc1c(-c2ccccc2)nn(C(=O)CC(=O)Nc2cccc(C)c2)c1-c1ccccc1
52.7 µM: K-562 leukemia
93.5 µM: SNB-75 CNS
88.1 µM: KM20L2 colon
53.9 µM: OVCAR-3 ovarian
77.1 µM: DMS 114 small cell lung
38 µM: HL-60(TB) leukemia
33.3 µM: HT29 colon
97.8 µM: SK-MEL-5 melanoma
61.5 µM: XF 498 CNS
50.6 µM: MOLT-4 leukemia
not listed: HOP-92 NSCLC | RPMI-8226 leukemia | SK-MEL-2 melanoma | SK-OV-3 ovarian | SR leukemia
> 100 µM: all other assays above

CC(C)N(C(=O)c1cccc(C(=O)N(C(C)C)C(C)C)c1)C(C)C
67.1 µM: RPMI-8226 leukemia
not listed: RXF 393 renal
> 100 µM: all other assays above
